# Laboratory results as given in US20090041862A1, “Detecting disease association with aberrant glycogen synthase kinase 3beta expression” (priority 2004, published 2009).
# Assays:
# [1] = target: Tau (endogenous Tau protein in COS-7 cells); assay: cell-based or functional assay
# [2] = system: GSKΔexon9+11; assay: Inhibition of endogenous Tau [pS396] phosphorylation in COS-7 cells transfected with GSKΔexon9+11 cDNA (ELISA); assay type: cell-based, human
# Procedure: Lymphocytes (as described in Example 3) or transfected cells were lysed in 1× Lysis buffer (50 mM Tris.HCl (pH 7.4), 150 mM NaCl, 1 mM PMSF, 1× complete cocktail protease inhibitor (Boehringer Mannheim) and 0.05% Triton X-100. Approximately 2-25 μg of total protein was used to assay for total Tau or Tau phosphorylated at serine residue 396 using the Human Tau or Human Tau [pS396] ELISA kit respectively (Biosource International, CA, USA).
# COS-7 cells plated onto 12 well plates at concentration of 1×10^5 cells/well and allowed to recover for 24 hours. Each well was transfected with either the GSKΔexon9 or GSKΔexon9+11 cDNA constructs (as described in Example 4) using Lipofectamine 2000.
compound,measurement,setting,value
GSK-3β lacking exon 9 and exon 11 (GSKΔexon9+11 isoform) (from UniProt P49841 1-420),levels of Tau [pSer396] by ELISA in COS-7 cells transfected with GSK-3β isoform cDNAs,[1],2.5 fold
Cn1sc(=O)n(Cc2ccccc2)c1=O [TDZD8],increase in sensitivity of GSKΔexon9+11 compared with GSKΔexon9,"[2]; ratio of IC50 values, COS-7 cells",2 fold
same,suppressing the level of tau phosphorylation in a cell expressing GSK-3β lacking exon 9 and exon 11 vs lacking exon 9,[2]; result in words,at a level greater than observed in a cell expressing GSK-3β lacking exon 9
